Laboratory results reported in patent US6737383B1, “Herbicidal oxadiazolidines” (priority 1999, dated 2004).

How the values were obtained:
[1] = system: corn; assay: Test C postemergence corn; type: in vivo, Zea mays; settings: 0 to 100 scale, 0 no effect, 100 complete control
In short: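 Greenhouse postemergence test: compound applied in solvent/surfactant formulation to established plants; visual scoring 0–100 against untreated controls after roughly two to three weeks (14–21 days).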

[2] = system: giant foxtail; assay: Test C postemergence giant foxtail; type: in vivo, Setaria faberii; settings: 0 to 100 scale, 0 no effect, 100 complete control
Method: (§1) Compounds evaluated in this test were formulated in a non-phytotoxic solvent mixture which included a surfactant and applied to plants that were grown for various periods of time before treatment (postemergence application). A mixture of sandy loam soil and greenhouse potting mix in a 60:40 ratio was used for the postemergence test.
(§2) Plantings of these crops and weed species were adjusted to produce plants of appropriate size for the postemergence test. All plant species were grown using normal greenhouse practices. Crop and weed species include arrowleaf sida (Sida rhombifolia), barnyardgrass (Echinochloa crus-galli), cocklebur (Xanthium strumarium), common ragweed (Ambrosia elatior), corn (Zea mays), cotton (Gossypium hirsutum), eastern black nightshade (Solanum ptycanthum), fall panicum (Panicum dichotomiflorum), field bindweed (Convolvulus arvensis), giant foxtail (Setaria faberii), hairy beggarticks (Bidens pilosa), ivyleaf morningglory (Ipomoea hederacea), johnsongrass (Sorghum halepense), ladysthumb smartweed (Polygonum persicaria), lambsquarters (Chenopodium album), large crabgrass (Digitaria sanguinalis), purple nutsedge (Cyperus rotundus), redroot pigweed (Amaranthus retroflexus), soybean (Glycine max), surinam grass (Brachiaria decumbens), velvetleaf (Abutilon theophrasti) and wild poinsettia (Euphorbia heterophylla).
(§3) Treated plants and untreated controls were maintained in a greenhouse for approximately 14, to 21 days, after which all treated plants were compared to untreated controls and visually evaluated. Plant response ratings, summarized in Table C, were based upon a 0 to 100 scale where 0 was no effect and 100 was complete control. A dash response (−) means no test result.

[3] = system: johnsongrass; assay: Test C postemergence johnsongrass; type: in vivo, Sorghum halepense; settings: 0 to 100 scale, 0 no effect, 100 complete control
Method: as §1, §2, §3

[4] = system: black nightshade; assay: Test E black nightshade; type: in vivo, Solanum nigra; settings: Postemergence; for Plant response rating, Blk nightshade: 0 to 100 scale; for Blk nightshade plant response rating: Rate 250 g/ha, 0 to 100 scale where 0 is no effect and 100 is complete control
Method: as §1, with “in the 1- to 4-leaf stage” for “grown for various periods of time before treatment”
(§4) Plantings of these crops and weed species were adjusted to produce plants of appropriate size for the postemergence test. All plant species were grown using normal greenhouse practices. Crop and weed species include annual bluegrass (Poa annua), blackgrass (Alopecurus myosuroides), black nightshade (Solanum nigra), chickweed (Stellaria media), common poppy (Papaver rhoeas), deadnettle (Lamium amplexicaule), downy brome (Bromus tectorum), field violet (Viola arvensis), galium (Galium aparine), green foxtail (Setaria viridis), Italian ryegrass (Lolium multiflorum), jointed goatgrass (Aegilops cylindrica), kochia (Kochia scoparia), lambsquarters (Chenopodium album), littleseed canarygrass (Phalaris minor), rape (Brassica napus), redroot pigweed (Amaranthus retroflexus), Russian thistle (Salsola kali), scentless chamomile (Matricaria inodora), spring barley (Hordeum vulgare), sugar beet (Beta vulgaris), sunflower (Helianthus annuus), ivyleaf speedwell (Veronica hederaefolia), spring wheat (Triticum aestivum), winter wheat (Triticum aestivum), wild buckwheat (Polygonum convolvulus), wild mustard (Sinapis arvensis), wild oat (Avena fatua), windgrass (Apera spica-venti) and winter barley (Hordeum vulgare).
(§5) Treated plants and untreated controls were maintained in a greenhouse for approximately 21 to 28 days, after which all treated plants were compared to untreated controls and visually evaluated. […] A dash response (-) means no test result.

[5] = system: galium; assay: Test E galium; type: in vivo, Galium aparine; settings: Postemergence; for Plant response rating, Galium: 0 to 100 scale; for Galium plant response rating: Rate 250 g/ha, 0 to 100 scale where 0 is no effect and 100 is complete control
In short: (§6)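 Greenhouse-grown plants are treated (postemergence: 1- to 4-leaf stage, sandy loam/potting mix 60:40), then evaluated visually versus untreated controls some 21 to 28 days later.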

[6] = system: jointed goatgrass; assay: Test E jointed goatgrass; type: in vivo, Aegilops cylindrica; settings: Postemergence; for Plant response rating, Jointed goatgra: 0 to 100 scale; for Jointed goatgra plant response rating: Rate 250 g/ha, 0 to 100 scale where 0 is no effect and 100 is complete control
In short: as §6

[7] = system: kochia; assay: Test E kochia; type: in vivo, Kochia scoparia; settings: Postemergence; for Plant response rating, Kochia: 0 to 100 scale; for Kochia plant response rating: Rate 250 g/ha, 0 to 100 scale where 0 is no effect and 100 is complete control
Method: as §1, with “in the 1- to 4-leaf stage” for “grown for various periods of time before treatment”
as §4, §5

[8] = system: lambsquarters; assay: Test E lambsquarters; type: in vivo, Chenopodium album; settings: Postemergence; for Plant response rating Lambsquarters: 0 to 100 scale; for Lambsquarters plant response rating: Rate 250 g/ha, 0 to 100 scale where 0 is no effect and 100 is complete control
In short: as §6

[9] = system: Russian thistle; assay: Test E Russian thistle; type: in vivo, Salsola kali; settings: Postemergence; for Plant response rating, Russian thistle: 0 to 100 scale; for Russian thistle plant response rating: Rate 250 g/ha, 0 to 100 scale where 0 is no effect and 100 is complete control
Method: […] A mixture of sandy loam soil and greenhouse potting mix in a 60:40 ratio was used for the postemergence test.
as §4, §5

[10] = system: sugar beet; assay: Test E sugar beet; type: in vivo, Beta vulgaris; settings: Postemergence; for Plant response rating, Sugar beet: 0 to 100 scale; for Sugar beet plant response rating: Rate 250 g/ha, 0 to 100 scale where 0 is no effect and 100 is complete control
Method: as §1, with “in the 1- to 4-leaf stage” for “grown for various periods of time before treatment”
as §4, §5

[11] = system: itchgrass; assay: Test D itchgrass; type: in vivo, Rottboellia exaltata; settings: Postemergence, 0 to 100 scale
[12] = system: purple nutsedge; assay: Test D purple nutsedge; type: in vivo, Cyperus rotundus; settings: Postemergence, 0 to 100 scale
[13] = system: kochia; assay: Test E kochia; type: in vivo, Kochia scoparia; settings: Preemergence; for Kochia plant response rating (0 to 100 scale): Rate 250 g/ha
[14] = system: lambsquarters; assay: Test E lambsquarters; type: in vivo, Chenopodium album; settings: Preemergence; for Lambsquarters plant response rating (0 to 100 scale): Rate 250 g/ha
[15] = system: spring barley; assay: Test E spring barley; type: in vivo, Hordeum vulgare; settings: Preemergence; for Spring Barley plant response rating (0 to 100 scale): Rate 250 g/ha
[16] = system: sunflower; assay: Test E sunflower; type: in vivo, Helianthus annuus; settings: Preemergence; for Sunflower plant response rating (0 to 100 scale): Rate 250 g/ha
[17] = system: windgrass; assay: Test E windgrass; type: in vivo, Apera spica-venti; settings: Preemergence; for Plant response rating, Windgrass: Rate 125 g/ha, 0 to 100 scale (0 no effect, 100 complete control)
[18] = Rate 125 g/ha, 0 is no effect, 100 is complete control
[19] = Rate 500 g/ha, 0 is no effect, 100 is complete control
[20] = Rate 16 g/ha, 0 no injury, 100 complete control
[21] = Rate 32 g/ha, 0 no injury, 100 complete control
[22] = Rate 64 g/ha, 0 no injury, 100 complete control
[23] = Rate 125 g/ha, 0 no injury, 100 complete control
[24] = Rate 125 g/ha, 0 to 100 scale (0 no effect, 100 complete control)
[25] = Rate 500 g/ha, 0 to 100 scale where 0 is no effect and 100 is complete control

CC(C)N(C(=O)n1oc(=O)n(C2CC2)c1=O)c1ccc(F)cc1 [Compound 242]
Plant response rating, Corn ([1]; Rate 140 g/ha): 0 | Plant response rating, Corn ([1]; Rate 280 g/ha): 0 | Plant response rating, Corn ([1]; Rate 560 g/ha): 0 | Plant response rating, Corn ([1]; Rate 1120 g/ha): 20 | Plant response rating, Giant foxtail ([2]; Rate 140 g/ha): 40 | Plant response rating, Giant foxtail ([2]; Rate 280 g/ha): 60 | Plant response rating, Giant foxtail ([2]; Rate 560 g/ha): 80 | Plant response rating, Giant foxtail ([2]; Rate 1120 g/ha): 85 | Plant response rating, Johnsongrass ([3]; Rate 140 g/ha): 45 | Plant response rating, Johnsongrass ([3]; Rate 280 g/ha): 45 | Plant response rating, Johnsongrass ([3]; Rate 560 g/ha): 60 | Plant response rating, Johnsongrass ([3]; Rate 1120 g/ha): 90 | Plant response rating, Blk nightshade ([4]; Rate 62 g/ha): 60 | Plant response rating, Blk nightshade [4, 18]: 30 | Blk nightshade plant response rating [4]: 50 | Plant response rating, Blk nightshade [4, 19]: 75 | Plant response rating, Galium ([5]; Rate 62 g/ha): 0 | Plant response rating, Galium [5, 18]: 20 | Galium plant response rating [5]: 30 | Plant response rating, Galium [5, 19]: 40 | Plant response rating, Jointed goatgra ([6]; Rate 62 g/ha): 55 | Plant response rating, Jointed goatgra [6, 18]: 0 | Jointed goatgra plant response rating [6]: 0 | Plant response rating, Jointed goatgra [6, 19]: 40 | Plant response rating, Kochia ([7]; Rate 62 g/ha): 20 | Plant response rating, Kochia [7, 18]: 60 | Kochia plant response rating [7]: 0 | Plant response rating, Kochia [7, 19]: 20 | Plant response rating Lambsquarters ([8]; Rate 62 g/ha): 10 | Plant response rating Lambsquarters [8, 18]: 0 | Lambsquarters plant response rating [8]: 0 | Plant response rating Lambsquarters [8, 19]: 0 | Plant response rating, Russian thistle ([9]; Rate 62 g/ha): 50 | Plant response rating, Russian thistle [9, 18]: 0 | Russian thistle plant response rating [9]: 0 | Plant response rating, Russian thistle [9, 19]: 0 | Plant response rating, Sugar beet ([10]; Rate 62 g/ha): 50 | Plant response rating, Sugar beet [10, 18]: 50 | Sugar beet plant response rating [10]: 40 | Plant response rating, Sugar beet [10, 19]: 30 | Plant response rating, Itchgrass [11, 20]: 0 | Plant response rating, Itchgrass [11, 21]: 0 | Plant response rating, Itchgrass [11, 22]: 40 | Plant response rating, Itchgrass [11, 23]: 80 | Plant response rating, Itchgrass ([11]; Rate 250 g/ha): 100 | Plant response rating, Purple nutsedge [12, 20]: 0 | Plant response rating, Purple nutsedge [12, 21]: 0 | Purple nutsedge plant response rating [12, 22]: 0 | Purple nutsedge plant response rating [12, 23]: 0 | Plant response rating, Purple nutsedge ([12]; Rate 250 g/ha): 100 | Plant response rating, Kochia [13, 24]: 35 | Kochia plant response rating (0 to 100 scale) [13]: 50 | Plant response rating, Kochia [13, 25]: 60 | Plant response rating Lambsquarters [14, 24]: 100 | Lambsquarters plant response rating (0 to 100 scale) [14]: 100 | Plant response rating Lambsquarters [14, 25]: 100 | Plant response rating, Spring Barley [15, 24]: 60 | Spring Barley plant response rating (0 to 100 scale) [15]: 70 | Plant response rating, Spring Barley [15, 25]: 85 | Plant response rating, Sunflower [16, 24]: 55 | Sunflower plant response rating (0 to 100 scale) [16]: 70 | Plant response rating, Sunflower [16, 25]: 60 | Plant response rating, Windgrass [17]: 100

CC(C)N(C(=O)n1oc(=O)n(C)c1=O)c1ccc(F)cc1 [Compound 138]
Plant response rating, Corn ([1]; Rate 280 g/ha): 20 | Plant response rating, Corn ([1]; Rate 560 g/ha): 50 | Plant response rating, Corn ([1]; Rate 1120 g/ha): 60 | Plant response rating, Giant foxtail ([2]; Rate 140 g/ha): 0 | Plant response rating, Giant foxtail ([2]; Rate 280 g/ha): 15 | Plant response rating, Giant foxtail ([2]; Rate 560 g/ha): 80 | Plant response rating, Giant foxtail ([2]; Rate 1120 g/ha): 85 | Plant response rating, Johnsongrass ([3]; Rate 140 g/ha): 0 | Plant response rating, Johnsongrass ([3]; Rate 280 g/ha): 20 | Plant response rating, Johnsongrass ([3]; Rate 560 g/ha): 60 | Plant response rating, Johnsongrass ([3]; Rate 1120 g/ha): 90 | Plant response rating, Blk nightshade ([4]; Rate 125 g/ha): 20 | Blk nightshade plant response rating [4]: 60 | Plant response rating, Galium ([5]; Rate 125 g/ha): 20 | Galium plant response rating [5]: 50 | Plant response rating, Jointed goatgra ([6]; Rate 125 g/ha): 0 | Jointed goatgra plant response rating [6]: 0 | Plant response rating, Kochia ([7]; Rate 125 g/ha): 15 | Kochia plant response rating [7]: 0 | Plant response rating Lambsquarters ([8]; Rate 125 g/ha): 10 | Lambsquarters plant response rating [8]: 30 | Plant response rating, Russian thistle ([9]; Rate 125 g/ha): 0 | Russian thistle plant response rating [9]: 0 | Plant response rating, Sugar beet ([10]; Rate 125 g/ha): 30 | Sugar beet plant response rating [10]: 10 | Plant response rating, Kochia [13, 24]: 20 | Kochia plant response rating (0 to 100 scale) [13]: 40 | Plant response rating Lambsquarters [14, 24]: 100 | Lambsquarters plant response rating (0 to 100 scale) [14]: 100 | Plant response rating, Spring Barley [15, 24]: 60 | Spring Barley plant response rating (0 to 100 scale) [15]: 90 | Plant response rating, Sunflower [16, 24]: 55 | Sunflower plant response rating (0 to 100 scale) [16]: 60 | Plant response rating, Windgrass [17]: 100 | Windgrass plant response rating (0 to 100 scale) ([17]; Rate 250 g/ha): 100

CC(C)N(C(=O)n1oc(=O)n(C2CCCCCC2)c1=O)c1ccc(F)cc1F [Compound 342]
Plant response rating, Itchgrass [11, 20]: 0 | Plant response rating, Itchgrass [11, 21]: 0 | Plant response rating, Itchgrass [11, 22]: 0 | Plant response rating, Itchgrass [11, 23]: 0 | Plant response rating, Itchgrass ([11]; Rate 250 g/ha): 0 | Plant response rating, Purple nutsedge [12, 20]: 0 | Plant response rating, Purple nutsedge [12, 21]: 0 | Purple nutsedge plant response rating [12, 22]: 0 | Purple nutsedge plant response rating [12, 23]: 0 | Plant response rating, Purple nutsedge ([12]; Rate 250 g/ha): 0
